Assay results as given in patent US20250136634A1, “CAP ANALOG AND USE THEREOF” (SHANGHAI HONGENE BIOTECH CORPORATION, priority 2021, published 2025).

molecular target: T1, RIG-I (Homo sapiens, UniProt O95786); experiment: Binding ability of mRNA to RIG-I, RNA co-immunoprecipitation and qPCR in Hela cells; conditions: Example 2; 2 ug mRNA/well, cells collected after 24 hours, relative to ^m7GpppApG cap, mean±SD
T1 construct: endogenous in cells; host or cells: Hela cells (ATCC CCL-2)
T1 sequence (O95786 1-925): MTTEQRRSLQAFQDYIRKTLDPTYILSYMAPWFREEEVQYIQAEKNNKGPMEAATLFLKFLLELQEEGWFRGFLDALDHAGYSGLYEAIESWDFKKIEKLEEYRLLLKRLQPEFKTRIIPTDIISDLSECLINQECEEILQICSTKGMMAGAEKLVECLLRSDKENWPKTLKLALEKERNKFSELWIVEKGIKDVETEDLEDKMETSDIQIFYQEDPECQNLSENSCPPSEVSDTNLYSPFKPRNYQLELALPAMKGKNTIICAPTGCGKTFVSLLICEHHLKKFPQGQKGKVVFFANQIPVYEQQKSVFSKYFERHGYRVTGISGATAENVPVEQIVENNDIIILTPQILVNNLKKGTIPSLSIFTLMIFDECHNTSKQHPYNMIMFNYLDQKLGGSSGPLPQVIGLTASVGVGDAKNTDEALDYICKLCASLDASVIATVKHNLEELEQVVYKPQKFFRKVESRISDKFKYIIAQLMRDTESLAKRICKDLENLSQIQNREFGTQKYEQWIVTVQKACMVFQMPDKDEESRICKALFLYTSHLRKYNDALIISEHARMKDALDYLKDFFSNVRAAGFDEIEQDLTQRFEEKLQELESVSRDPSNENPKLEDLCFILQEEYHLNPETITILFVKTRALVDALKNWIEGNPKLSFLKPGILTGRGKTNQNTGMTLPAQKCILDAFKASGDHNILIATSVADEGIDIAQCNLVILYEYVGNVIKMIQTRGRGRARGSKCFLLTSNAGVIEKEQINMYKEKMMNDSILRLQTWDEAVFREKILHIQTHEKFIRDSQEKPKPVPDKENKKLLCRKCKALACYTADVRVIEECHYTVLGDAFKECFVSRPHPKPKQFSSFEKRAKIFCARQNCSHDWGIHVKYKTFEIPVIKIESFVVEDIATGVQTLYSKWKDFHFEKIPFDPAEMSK
Experimental: In this example, Hela cells (ATCC CCL-2) were transfected with luciferase mRNAs (Gaussia luciferase) comprising various initial cap structures (the initial cap nucleotide structures comprised are: ^m7GpppApG, ^m7GpppA2′Ome pG, ^m7G3′OmepppA2′O-ethylpG, ^m7G2′OmepppA2′O-ethylpG, ^m7G3′Omeppp A2′O-MOEpG, ^m7G2′O-mepppA2′O-MOEpG, ^m7Gppp(N6-methyladenine)2′O-MOEpG, ^m7G2′OmepppC2′O-ethylpC, ^m7G3′OmepppA2′O-MOEpU), and collected after 24 hours. The intracellular proteins RIG-I and IFIT1 were co-precipitated with the RNAs to which they bound by RNA co-immunoprecipation. The mRNAs were subjected to reverse transcription and real-time quantitative PCR, and the relative abundance of the mRNAs is proportional to their RIG-I and IFIT1 binding ability.
(§1) Hela cells were seeded at a cell density of 4×10^5/well in 6-well plates, and transfected with mRNA at 2 ug mRNA/well when the cell density reached about 80% using Lipofectamine MessengerMAX Transfection Reagent (Invitrogen) according to the transfection steps in the instruction. The cells were collected after 24 hours, and incubated at RT for 10 minutes after the addition of fixative solution. The reaction was then terminated by adding glycine at a suitable concentration, and the cells were collected by centrifugation. Appropriate amount of lysis solution was added to the cells. The mixture was incubated on ice for 30 minutes and centrifuged to collect supernatant. Appropriate amount of (2-4 ng) anti-RIG-I and IFIT1 antibodies (Abcam) were added to the supernatant, and the mixture was incubated overnight at 4° C. on a shaker, and then 20 ul Protein A/G magnetic beads were added and incubated for 2 hours at 4° C. on a shaker. The beads were rinsed using magnetic grate for 5 minutes and repeated 3 times. After that, 1 mL TRIzol reagent was added to the magnetic beads to extract RNAs which were then reverse transcribed into cDNAs. The expression of related genes was detected using real-time quantitative fluorescent PCR with B-actin as the internal reference. The detection of each gene was repeated 3 times, and the result of the expression of each gene is expressed as the relative value to the result of ^m7GpppApG cap.
The intracellular proteins RIG-I and IFIT1 were co-precipitated with the RNAs to which they bound by RNA co-immunoprecipitation. The mRNAs were subjected to reverse transcription and real-time quantitative PCR, and the relative abundance of the mRNAs is proportional to their RIG-I and IFIT1 binding ability.
as §1, with “(Invitrogen) as the transfection reagent” for “(Invitrogen)”, “was” for “was then”

Substance	Relative binding ability to RIG
^m7G2′OmepppA2′O-MOEpG	0.69 ± 0.01
^m7G2′OmepppA2′O-ethylpG	0.82 ± 0.03
^m7G2′OmepppC2′O-ethylpC	0.93 ± 0.08
^m7G3′OmepppA2′O-MOEpG	0.78 ± 0.07
^m7G3′OmepppA2′O-MOEpU	1.12 ± 0.01
^m7G3′OmepppA2′O-ethylpG	0.87 ± 0.11
^m7Gppp(N6-methyladenine)2′O-MOEpG	0.77 ± 0.14
^m7GpppA2′Ome pG [reference compound]	0.86 ± 0.06
^m7GpppApG [reference compound]	1 ± 0.23

same assay, conditions: Example 3 (IVT at 50° C.); 2 ug mRNA/well, cells collected after 24 hours, relative to ^m7GpppApG cap, mean±SD

Substance	Relative binding ability to RIG
^m7GAlpha-L-LNApppA2′O-ethyl pG	0.52 ± 0.01
^m7GBeta-D-LNApppA2′O-MOEpG	0.48 ± 0.02
^m7GpppA2′Ome pG [reference compound]	0.88 ± 0.11
^m7GpppApG [reference compound]	1 ± 0.28
